Experimental data taken from patent US20160185774A1, “Anti-Infective Compounds” (priority 2013, published 2016).
≈ marks a conversion by molar mass, not a printed value.

Tests used:
[1] = test system: M. tuberculosis; test: microbe, parasite or virus in culture; type: cell-based; conditions: Mycobacterium tuberculosis, 120 h; read-out: QUM (MIC80)

| Compound | melting point | MIC80 [1] [µM] |
| --- | --- | --- |
| CCc1nc2ccc(Cl)cn2c1C(=O)NCc1ccc(N2CCC(C(=O)Cc3ccc(F)cc3)CC2)cc1 [Compound 244] | 216.2 to 220.7 °C |  |
| CCc1nc2ccc(Cl)cn2c1C(=O)NCc1cccc(N(C)Cc2ccc(OC(F)(F)F)cc2)c1 [Compound 247] | > 142.3 °C (dec.) | 1 to 20 (≈ 0.517 to 10.3 µg/mL) |
| CCc1nc2ccc(Cl)cn2c1C(=O)NCc1cccc(OCc2ccc(OC(F)(F)F)cc2)c1 [Compound 248] | > 142.7 °C (dec.) | 1 to 20 (≈ 0.504 to 10.1 µg/mL) |
| CCc1nc2ccc(Cl)cn2c1C(=O)NCc1cccc(N2CCC(c3ccc(OC(F)(F)F)cc3)CC2)c1 [Compound 249] | 135.5 to 136.4 °C | > 20 |
| CCc1nc2ccc(Cl)cn2c1C(=O)NCc1cccc(CC(=O)Nc2ccc(F)cc2)c1 [Compound 250] | > 198.8 °C (dec.) | > 20 |
| CCc1nc2ccc(Cl)cn2c1C(=O)NCc1cccc(N2CCN(c3ccc(OC(F)(F)F)cc3)CC2)c1 [Compound 251] | > 168 °C (dec.) | 1 to 20 (≈ 0.558 to 11.2 µg/mL) |
| CCc1nc2ccc(Cl)cn2c1C(=O)NCc1ccc(CC2CCOCC2)cc1 [Compound 253] | 132.2 to 133 °C | < 1 |
| CCc1nc2cc(Cl)ccn2c1C(=O)NCc1ccc(CC2CCOCC2)cc1 [Compound 254] | > 125.9 °C (dec.) | < 1 |
| CCc1nc2ccc(Cl)cn2c1C(=O)NCc1cccc(N2CCC(Oc3ccc(OC(F)(F)F)cc3)CC2)c1 [Compound 255] | 126.3 to 127.2 °C | > 20 |
| CCc1nc2ccc(Cl)cn2c1C(=O)NCc1cc2cc(Cl)ccc2s1 [Compound 256] | > 220 °C | < 1 |
| CCc1nc2ccccn2c1C(=O)NCc1ccc(C2CCOCC2)cc1 [Compound 257] | > 133.7 °C (dec.) | < 1 |
| CCc1nc2ccc(Cl)cn2c1C(=O)NCc1ccc(C2CCOCC2)cc1 [Compound 258] | > 195.5 °C (dec.) | < 1 |
| CCc1nc2cc(Cl)ccn2c1C(=O)NCc1ccc(C2CCOCC2)cc1 [Compound 259] | > 156.6 °C (dec.) | < 1 |
| Cc1nc2c(F)cccn2c1C(=O)NCc1ccc(N2CCC(c3ccc(C(F)(F)F)cc3)CC2)cc1 [Compound 310] |  | < 1 |
| Cc1nc2c(F)cccn2c1C(=O)NCc1ccc(N2CCC(c3ccc(F)cc3)CC2)cc1 [Compound 311] |  | < 1 |
| Cc1nc2c(F)cccn2c1C(=O)NCc1ccc(N2CCC(c3ccc(OC(F)(F)F)cc3)CC2)cc1 [Compound 312] |  | < 1 |
| Cc1nc2ccc(F)cn2c1C(=O)NCc1ccc(N2CCC(c3ccc(F)cc3)CC2)cc1 [Compound 313] |  | < 1 |
| Cc1ccc(C2CCN(c3ccc(CNC(=O)c4c(C)nc5ccc(F)cn45)cc3)CC2)cc1 [Compound 314] |  | < 1 |
| Cc1nc2ccc(F)cn2c1C(=O)NCc1ccc(N2CCC(c3ccc(C(F)(F)F)cc3)CC2)cc1 [Compound 315] |  | < 1 |
| Cc1nc2ccc(F)cn2c1C(=O)NCc1ccc(N2CCC(c3ccc(OC(F)(F)F)cc3)CC2)cc1 [Compound 316] |  | < 1 |
| CCc1nc2ccc(Cl)cn2c1C(=O)NCc1ccc(C(=O)N(C)Cc2ccc(F)cc2)cc1 [Compound 317] |  | 1 to 20 (≈ 0.479 to 9.58 µg/mL) |
| CCc1nc2cc(Cl)ccn2c1C(=O)NCc1ccc(C(=O)N(C)Cc2ccc(F)cc2)cc1 [Compound 318] |  | 1 to 20 (≈ 0.479 to 9.58 µg/mL) |
| CCc1nc2ccc(Cl)cn2c1C(=O)NCc1ccc(OCC23CC4CC(CC(C4)C2)C3)cc1 [Compound 319] |  | < 1 |
| CCc1nc2cc(Cl)ccn2c1C(=O)NCc1ccc(OCC23CC4CC(CC(C4)C2)C3)cc1 [Compound 320] |  | < 1 |
| CCc1nc2ccc(Cl)cn2c1C(=O)NCc1ccc(NC23CC4CC(CC(C4)C2)C3)cc1 [Compound 321] |  | < 1 |
| CCc1nc2cc(Cl)ccn2c1C(=O)NCc1ccc(NC23CC4CC(CC(C4)C2)C3)cc1 [Compound 322] |  | < 1 |

| Compound | melting point | MIC80 [1] [µM] |
| --- | --- | --- |
| CCc1nc2ccc(Cl)cn2c1C(=O)NCc1ccc(NC2C3CC4CC(C3)CC2C4)cc1 (stereo not drawn) [Compound 323] |  | < 1 |
| CCc1nc2cc(Cl)ccn2c1C(=O)NCc1ccc(NC2C3CC4CC(C3)CC2C4)cc1 (stereo not drawn) [Compound 324] |  | < 1 |
| Cc1nc2ccc(Cl)cn2c1C(=O)NCc1ccc(N2CCC(c3ccc(F)cc3)CC2)cc1 [Compound 325] |  | < 1 |
| Cc1ccc(C2CCN(c3ccc(CNC(=O)c4c(C)nc5ccc(Cl)cn45)cc3)CC2)cc1 [Compound 326] |  | < 1 |
| Cc1nc2ccc(Cl)cn2c1C(=O)NCc1ccc(N2CCC(c3ccc(C(F)(F)F)cc3)CC2)cc1 [Compound 327] |  | < 1 |
| Cc1nc2ccc(Cl)cn2c1C(=O)NCc1ccc(N2CCC(c3ccc(OC(F)(F)F)cc3)CC2)cc1 [Compound 328] |  | < 1 |
| CCc1nc2cc(Cl)ccn2c1C(=O)NCc1cccc(C(=O)NCc2ccc(F)cc2)c1 [Compound 329] |  | 1 to 20 (≈ 0.465 to 9.3 µg/mL) |
| CCc1nc2cc(Cl)ccn2c1C(=O)NCc1cccc(C(=O)N(C)Cc2ccc(F)cc2)c1 [Compound 330] |  | 1 to 20 (≈ 0.479 to 9.58 µg/mL) |
| CCc1nc2ccc(Cl)cn2c1C(=O)NCc1ccc2oc(CN3CCOCC3)nc2c1 [Compound 331] |  | 1 to 20 (≈ 0.454 to 9.08 µg/mL) |
| CCc1nc2cc(Cl)ccn2c1C(=O)NCc1ccc2oc(CN3CCOCC3)nc2c1 [Compound 332] |  | 1 to 20 (≈ 0.454 to 9.08 µg/mL) |
| CCc1nc2cc(Cl)ccn2c1C(=O)NCc1ccc(-c2ccc(C(=O)O)cc2)cc1 [Compound 335] |  | < 1 |
| CCc1nc2ccc(Cl)cn2c1C(=O)NCc1ccc(N2CCC(C(=O)OCCN3CCOCC3)CC2)cc1 [Compound 336] |  | < 1 |
| CCc1nc2cc(Cl)ccn2c1C(=O)NCc1ccc(N2CCC(C(=O)OCCN3CCOCC3)CC2)cc1 [Compound 337] |  | < 1 |
| CCC1N=C2C=CC(Cl)=CN2C1C(=O)NCc1ccc2oc(C)nc2c1 (stereo not drawn) [Compound 338] |  | < 1 |
| CCc1nc2cc(Cl)ccn2c1C(=O)NCc1ccc2oc(C)nc2c1 [Compound 339] |  | 1 to 20 (≈ 0.369 to 7.38 µg/mL) |
| CCc1nc2ccc(Cl)cn2c1C(=O)NCc1ccc(N2CC[C@@H](Oc3ccc(Cl)cc3)C2)cc1 [Compound 340] |  | < 1 |
| CCc1nc2cc(Cl)ccn2c1C(=O)NCc1ccc(N2CC[C@@H](Oc3ccc(Cl)cc3)C2)cc1 [Compound 341] |  | < 1 |
| CCc1nc2ccc(Cl)cn2c1C(=O)NCc1ccc(N2CC[C@H](Oc3ccc(Cl)cc3)C2)cc1 [Compound 342] |  | < 1 |
| CCc1nc2cc(Cl)ccn2c1C(=O)NCc1ccc(N2CC[C@H](Oc3ccc(Cl)cc3)C2)cc1 [Compound 343] |  | < 1 |
| CCc1nc2ccc(Cl)cn2c1C(=O)NCc1ccc(N2CCC(c3ccc(C(=O)OC)cc3)CC2)cc1 [Compound 344] |  | < 1 |
| CCc1nc2ccc(Cl)cn2c1C(=O)NCc1ccc(N2CCC(c3ccc(CO)cc3)CC2)cc1 [Compound 345] |  | < 1 |
| CCc1nc2ccc(Cl)cn2c1C(=O)NCc1ccc(N2CCC(c3ccc(C=O)cc3)CC2)cc1 [Compound 346] |  | < 1 |
| Cc1nc2cc(F)ccn2c1C(=O)NCc1ccc(N2CCC(c3ccc(Cl)cc3)CC2)cc1 [Compound 348] |  | < 1 |
| Cc1nc2cc(F)ccn2c1C(=O)NCc1ccc(N2CCC(c3ccc(C(F)(F)F)cc3)CC2)cc1 [Compound 349] |  | < 1 |
| Cc1nc2cc(F)ccn2c1C(=O)NCc1ccc(N2CCC(c3ccc(OC(F)(F)F)cc3)CC2)cc1 [Compound 350] |  | < 1 |
